Results reported in US7807623B2, “Use of pentagastrin to inhibit gastric acid secretion or as a diuretic” (The Regents of the University of California, priority 1999, dated 2010).
Values joined by “and” are separate entries in the source; they are usually repeats but may differ in a detail not shown here. Equal entries are not always repeated.

How the values were obtained:
[1] = Adverse event monitoring in the pentagastrin infusion study; assay type: in vivo, human; details: for subjects who withdrew because of adverse events: healthy subjects under continuous PG infusion
From the text: Adverse events were monitored continuously in the Clinical Research Center. Treatment-emergent adverse events were defined as adverse events not present at baseline or events present at baseline that worsened during treatment.

[2] = tested on: Pentagastrin-Induced Gastric Acid Secretion; experiment: Continuous pentagastrin infusion model: gastric acid output after single i.v. dose; assay type: in vivo, human; details: for Acid Output, Treatment Period 0-6 h / Acid Output, Treatment Period 6-12 h / Acid Output, Treatment Period 12-18 h / Acid Output, Treatment Period 18-24 h: continuous PG 1 μg/kg/h, mean ± SD; for duration of action (time AO remained <10 mEq/h) / onset of response (time until AO decreased to <10 mEq/h and remained below for 1 h): mean±SD
Method: After 60 min of pentagastrin infusion, subjects received a single dose of i.v. pantoprazole (20, 40, 80, or 120 mg), i.v. famotidine (20 mg), or saline placebo. […] The study protocol was approved by the UCLA Institutional Review Board and conducted according to the provisions of the Declaration of Helsinki and its amendments. Written informed consent was obtained from each participant before enrollment, and the identity of each patient was kept confidential. Each subject underwent a prestudy screening that included a physical examination, electrocardiogram (ECG), laboratory blood and urine analysis, and a pregnancy test for women. The laboratory test included a complete blood count, blood chemistry tests, a test for human immunodeficiency virus, a screening for hepatitis B and C, and a urine drug screen. Subjects were excluded from the study if abnormalities in these parameters were detected. Maximum AO (MAO) were also determined during the screening period. MAO was estimated by the subcutaneous injection of PG (6 μg/kg), after which four 15-min samples were collected and analyzed (Table 1). […] Subjects who completed the screening examination and were eligible for the study were assigned to one of six treatment groups to receive i.v. doses of pantoprazole (20, 40, 80, or 120 mg), i.v. famotidine (20 mg), or placebo (normal saline). […] To stimulate MAO, subjects received an infusion of PG for 25 h (Peptavalon, Wyeth-Ayerst; 1.0 μg/kg/h) begun 1 h before the start of the study drug infusion. Gastric aspirates were collected by means of nasogastric (NG) tube in 15-min fractions from 1 h before study drug treatment through the end of treatment h 2 and in 30 min fractions from h 3 through the end of h 24. The variables measured were onset of response (time until AO decreased to <10 mEq/h and remained below this level for 1 h), duration of response (time from onset until time when AO levels rose to >10 mEq/h and remained so for 1 h), and cumulative AO 15 over 24 h. […] On the evening before study day 1, participants were admitted to the UCLA Clinical Research Center. […] PG administration and MAO analyses were performed. […] Because no fluid or food p.o. was permitted during the study period, subjects received maintenance i.v. fluid to prevent dehydration. Vital signs and electrolytes were monitored during this time. […] (1973) Dig. […] Because this was an exploratory study, statistical analysis consisted of presenting means and standard deviations.

CCKB/gastrin receptor [3] = target: T1, CCKB/gastrin receptor (Rattus norvegicus, UniProt P30553); experiment: Meal gavage: renal hemodynamics, sodium excretion and urine volume; assay type: in vivo
T1 construct: act specifically at CCKB/gastrin receptors on renal tubular cells; from tissue; host or cells: kidney of living male Wistar-Kyoto rats (in vivo)
T1 sequence (P30553 1-452): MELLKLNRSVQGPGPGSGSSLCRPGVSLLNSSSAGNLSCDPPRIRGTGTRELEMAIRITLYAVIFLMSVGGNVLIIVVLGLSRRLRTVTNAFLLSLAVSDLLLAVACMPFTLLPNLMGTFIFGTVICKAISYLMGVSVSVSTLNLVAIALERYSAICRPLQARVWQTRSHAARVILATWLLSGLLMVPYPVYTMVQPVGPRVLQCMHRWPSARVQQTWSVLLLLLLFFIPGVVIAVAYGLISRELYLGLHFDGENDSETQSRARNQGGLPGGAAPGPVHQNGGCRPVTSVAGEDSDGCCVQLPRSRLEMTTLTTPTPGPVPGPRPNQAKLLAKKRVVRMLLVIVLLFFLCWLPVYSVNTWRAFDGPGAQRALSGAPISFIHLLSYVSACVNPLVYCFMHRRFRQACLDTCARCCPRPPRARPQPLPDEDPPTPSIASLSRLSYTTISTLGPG
Method: (§1) Male Wistar-Kyoto rats (300 grams, 10-12 weeks old) (Harlan Sprague Dawley, Indianapolis, Ind.) were maintained on a regular Purina rat chow diet. Catheters were placed into the external jugular and femoral veins and left carotid artery and systemic arterial pressure was monitored. The right suprarenal artery was cannulated with a PE-10 catheter heat stretched to 180 mm and a flow catheter was secured around the right renal artery (Transonic Systems, Ithaca, N.Y.). GFR was determined after an intravenous infusion of normal saline containing [^14C]-inulin (0.01 mCi/10 ml (New England Nuclear, Boston, Mass.) at a rate of 5 ml/100 g body wt. for 30 minutes followed by an infusion of 1.8 ml/100 g body wt/hr). After an equilibration period of 120 minutes, 20 minute collections were begun. Meal gavage studies were performed with 2.5 ml/hr of liquefied rat chow administered via gastric tube. Gastrin 17-1 (Peninsula Laboratories, CA) was diluted in normal saline and infused (10 pmoles/kg/hr) via the right renal artery catheter. Following a basal period, rats received either L-365,260 (80 pmoles/kg, 5 min bolus) or vehicle alone and 20 minute collection periods were begun for determination of sodium and water excretion.

CCKB/gastrin receptor [4] = target: T1, CCKB/gastrin receptor; experiment: Intrarenal gastrin infusion: renal hemodynamics, sodium excretion and urine volume; assay type: in vivo; details: L-365,260 80 pmoles/kg bolus after gastrin infusion
Method: as §1

Na+-K+-ATPase = Na+-K+-ATPase activity in isolated renal tubules after meal; assay type: biochemical, rat; details: direct intrarenal infusion 80 pmoles/kg prior to the meal
Method: Renal tubules (cortical and medullary thick ascending limb of Henle) were isolated (Slobodyansky et al. (1995) Am. J. Physiol. 268: F279-F284) and immediately homogenized (in a Polytron) in 4° C. reaction buffer [4 mM MgCl2, 100 mM tris(hydroxymethyl)aminomethane HCl, pH7.2]. The dephosphorylation of tris(hydroxymethyl)aminomethane-p-nitrophenyl-phosphate was used as the index of Na^+-K^+-ATPase activity (Eisner et al. (1997) Am. J. Physiol. 273: R317-R323).

[5] = cited from earlier work
[6] = 80 pmoles/kg bolus, more than 5-fold with meal alone
[7] = L-365,260 80 pmoles/kg 5 min bolus before meal gavage
[8] = single i.v. doses 80 and 120 mg

NC(N)=Nc1nc(CSCCC(N)=NS(N)(=O)=O)cs1 [Famotidine, famotidine]
subjects who withdrew because of adverse events [1]: No subjects
adverse events reported ([1]; i.v. 20 mg group under continuous PG infusion): Three subjects from the famotidine group complained of abdominal pain and dyspepsia and were noted to have small amounts of blood in their NG aspirate
Peak inhibition of acid output ([2]; single i.v. dose 20 mg): 94%
hourly AO averaged over the 24-h period ([2]; single i.v. dose 20 mg): 18.2 mEq/h
loss of acid-suppressing effectiveness ([2]; single i.v. dose 20 mg): lost effectiveness after 6 h
Acid Output, Treatment Period 0-6 h ([2]; single i.v. dose 20 mg): 4.4 ± 2.5 mEq/h
Acid Output, Treatment Period 6-12 h ([2]; single i.v. dose 20 mg): 17.7 ± 5.1 mEq/h
Acid Output, Treatment Period 12-18 h ([2]; single i.v. dose 20 mg): 25.8 ± 9.3 mEq/h
Acid Output, Treatment Period 18-24 h ([2]; single i.v. dose 20 mg): 25.0 ± 10.4 mEq/h
duration of action (time AO remained <10 mEq/h) ([2]; single i.v. dose 20 mg): 6.5 ± 2.1 h
onset of response (time until AO decreased to <10 mEq/h and remained below for 1 h) ([2]; single i.v. dose 20 mg): 0.5 ± 0.2 h

Cc1cccc(NC(=O)N[C@@H]2N=C(c3ccccc3)c3ccccc3N(C)C2=O)c1 [L-365,260]
inhibition of meal-stimulated increase in sodium and water excretion (CCKB/gastrin receptor [3]; 80 pmoles/kg bolus): up to 80%
effect on meal-stimulated increase in urine flow rate (CCKB/gastrin receptor [3]; 80 pmoles/kg bolus, compared to vehicle alone): nearly completely inhibited
meal-stimulated increase in fractional excretion of sodium (FeNa) in presence of antagonist (CCKB/gastrin receptor [3]; [6]): 2 fold
meal-stimulated increase in urinary sodium (UNaV) in presence of antagonist (CCKB/gastrin receptor [3]; [6]): 2 fold
effect on meal-induced increase in glomerular filtration rate (GFR) (CCKB/gastrin receptor [3]; [7]): inhibited
effect on meal-induced increase in renal blood flow (RBF) (CCKB/gastrin receptor [3]; [7]): inhibited
effect on Mean Arterial Pressure (MAP) (CCKB/gastrin receptor [3]; meal gavage study period, 80 pmoles/kg bolus): No effect
effect on gastrin-stimulated FeNa (CCKB/gastrin receptor [4]): returned to near baseline values
effect on gastrin-stimulated changes in urine flow rate (CCKB/gastrin receptor [4]): completely antagonized
effect on gastrin-stimulated elevation in urinary excretion of sodium (CCKB/gastrin receptor [4]): returned to near baseline values
effect on meal induced inhibition of Na+/K+-ATPase activity (Na+-K+-ATPase): complete reversal

COc1ccnc(C[S+]([O-])c2nc3ccc(OC(F)F)cc3[nH]2)c1OC (stereo not shown) [Pantoprazole, pantoprazole]
subjects who withdrew because of adverse events [1]: Three
AO suppressed to ([2]; 80 and 120 mg doses, all subjects, after 1 h and for the full 24-h period): < 10 mEq/h
AO suppressed to ([2]; all i.v. doses (20, 40, 80, 120 mg)): < 10 mEq/h
time after administration at which acid-suppressing activity was observed ([2]; i.v., in general): 15 to 20 min
Peak inhibition of acid output ([2]; single i.v. dose 20 mg): 83%
hourly AO averaged over the 24-h period ([2]; single i.v. dose 20 mg): 11.9 mEq/h
Acid Output, Treatment Period 0-6 h ([2]; single i.v. dose 20 mg): 11.7 ± 10.5 mEq/h
Acid Output, Treatment Period 6-12 h ([2]; single i.v. dose 20 mg): 13.6 ± 13.3 mEq/h
Acid Output, Treatment Period 12-18 h ([2]; single i.v. dose 20 mg): 15.1 ± 13.7 mEq/h
Acid Output, Treatment Period 18-24 h ([2]; single i.v. dose 20 mg): 14.2 ± 8.6 mEq/h
duration of action (time AO remained <10 mEq/h) ([2]; single i.v. dose 20 mg): 8.4 ± 8.0 h
Peak inhibition of acid output ([2]; single i.v. dose 40 mg): 90%
hourly AO averaged over the 24-h period ([2]; single i.v. dose 40 mg): 7.6 mEq/h
Acid Output, Treatment Period 0-6 h ([2]; single i.v. dose 40 mg): 8.1 ± 5.4 mEq/h
Acid Output, Treatment Period 6-12 h ([2]; single i.v. dose 40 mg): 4.8 ± 4.0 mEq/h
Acid Output, Treatment Period 12-18 h ([2]; single i.v. dose 40 mg): 7.3 ± 4.1 mEq/h
Acid Output, Treatment Period 18-24 h ([2]; single i.v. dose 40 mg): 10.1 ± 3.7 mEq/h
Peak inhibition of acid output ([2]; single i.v. dose 80 mg): 99%
hourly AO averaged over the 24-h period ([2]; single i.v. dose 80 mg): 3.3 mEq/h
Acid Output, Treatment Period 0-6 h ([2]; single i.v. dose 80 mg): 2.4 ± 1.5 mEq/h
Acid Output, Treatment Period 6-12 h ([2]; single i.v. dose 80 mg): 1.2 ± 0.6 mEq/h
Acid Output, Treatment Period 12-18 h ([2]; single i.v. dose 80 mg): 3.7 ± 1.9 mEq/h
Acid Output, Treatment Period 18-24 h ([2]; single i.v. dose 80 mg): 6.1 ± 3.2 mEq/h
duration of action (time AO remained <10 mEq/h) ([2]; single i.v. dose 80 mg): 21.2 ± 1.9 h
onset of response (time until AO decreased to <10 mEq/h and remained below for 1 h) ([2]; single i.v. dose 80 mg): 0.8 ± 0.3 h
Peak inhibition of acid output ([2]; single i.v. dose 120 mg): 100%
hourly AO averaged over the 24-h period ([2]; single i.v. dose 120 mg): 2.4 mEq/h
Acid Output, Treatment Period 0-6 h ([2]; single i.v. dose 120 mg): 1.3 ± 0.8 mEq/h
Acid Output, Treatment Period 6-12 h ([2]; single i.v. dose 120 mg): 0.7 ± 0.2 mEq/h
Acid Output, Treatment Period 12-18 h ([2]; single i.v. dose 120 mg): 3.7 ± 0.7 mEq/h
Acid Output, Treatment Period 18-24 h ([2]; single i.v. dose 120 mg): 5.2 ± 0.4 mEq/h
onset of response (time until AO decreased to <10 mEq/h and remained below for 1 h) ([2]; single i.v. dose 120 mg): 0.4 ± 0.2 h
duration of acid output suppression [2, 8]: > 20 h
onset of action [2, 8]: < 1 h
suppression of acid output ([2]; single i.v. doses 80 and 120 mg, all subjects): 99-100%
suppression of acid output ([2]; single i.v. doses 80 and 120 mg, all subjects, listed as pantoprazole): > 90%
duration of acid output suppression ([2]; single i.v. doses 80 and 120 mg, listed as pantoprazole): ~24 h and < 21 h

CSCC[C@H](NC(=O)[C@H](Cc1c[nH]c2ccccc12)NC(=O)CCNC(=O)OC(C)(C)C)C(=O)N[C@@H](CC(=O)O)C(=O)N[C@@H](Cc1ccccc1)C(N)=O [Pentagastrin, N-t-butyloxycarbonyl-Beta-alanyl-L-tryptophyl-L-methionyl-L-aspartyl-L-phenyl-alanyl amide]
solubility in dimethylformamide and dimethylsulfoxide [5]: soluble
solubility in water, ethanol, ether, benzene, chloroform, ethyl acetate [5]: almost insoluble
